Key:
[1] = system: antibodies against 14,15-DHET; assay: 14,15-DHET solid phase competitive ELISA, specificity; format: binding, goat; conditions: 14,15-DHET ELISA, panel of eicosanoids
Protocol: (§1) High-binding microplates were coated with protein G-purified IgG suspended in 1 M carbonate, pH 9.01 (10 μg/well; 200 μL/well final volume) and then covered with parafilm. After overnight incubation at room temperature, the welts were gently washed five times with tris buffered saline (TBS), pH 7.5, containing 0.1% tween. Non-specific sites were blocked by the addition of 0.2 mL of 5% (w/v) nonfat dry milk in TBS. After 2 hours of incubation at room temperature, they were washed three times with TBS-tween.
(§2) Standards were serially diluted with TBS (100 μL). The diluted samples (100 μL) were added to the IgG-coated plate. Approximately 50 ng of the DHET HRP conjugates were diluted with HRP-dilution buffer (100 μL) and added to the well. Following incubation for 2 hours to permit competitive binding of the molecules to the antibody, unbound material was removed by thorough washing of the wells with TBS-tween, and 150 μL of a calorimetric substrate for HRP [3,3′,5,5′ tetramethylbenzidine (TMB) and hydrogen peroxide] (Sigma Co.) was added. The plate is then incubated for 30 min, the reaction stopped by addition of 75 μL of 1 N H2SO4, and the absorbance at 450 nm was measured using a microtiter plate reader. Under these assay conditions, the amount of color in a well is inversely proportional to the initial concentration of the sample or the standard ligand.
(§3) The specificity of the 14,15-DHET ELISA was investigated using authentic DHET and a panel of eicosanoids which, based on their structure, might be anticipated to compete with 14,15-DHET for binding to antibodies against 14,15-DHET.
(§4) In a typical standard graph for 14,15-DHET, the r2 value for the fit of the data to an equation describing an inverse logarithmic relationship of free 14,15-DHET to B/Bo was usually higher than 0.96. The detection limits for 14,15- and 11,12-DHET with ELISAwere ˜1 pg.

11,12-DHET IgG = assay: 11,12-DHET solid phase competitive ELISA, specificity; format: binding, goat; conditions: 11,12-DHET ELISA, authentic DHETs
Protocol: as §1, §2, §3, §4

[2] = Form-specific antibody production / specificity of anti-14,15-, 11,12-, 8,9- and 5,6-DHETs; format: binding; conditions: DHET coupled to KLH, goat immunized
Protocol: Synthetic 14,15-, 11,12- or 8,9-DHETs were coupled to KLH using dicyclohexylcarbodiimide (DCC) as previously described (10). The 5,6-DHET with COOH at C1 blocked by NH3 to prevent lactone formation were coupled to KLH using 1-ethyl-3-(3-dimethylaminopropyl)carbodiimide hydrochloride (EDC) according to the manufacturer's instruction (Pierce Biotechnology, Rockford, Ill).
The conjugate was used to immunize a goat and antibody titers were determined by ELISA using the DHET-conjugated bovine serum albumin (BSA).
as §3
(§5) The specificity of the antibody developed against 14,15-DHET was further investigated utilizing slot blot analysis. The 14,15-DHET conjugated BSA, BSA alone and 8,9-DHET conjugated to BSA were blotted onto cellulose membrane. Slot blot analysis was carried out with anti-14,15-DHET. […] Anti-8,9-DHET cross-reacted with both 8,9- and 14,15-DHETs.

Anti-8,9-DHET = assay: Cross-reaction of anti-8,9-DHET; format: binding, goat
Protocol: as §5

[3] = system: ethanol-esterified 13-HODE IgG; assay: Competitive ELISA with HRP conjugated with ethanol-esterified 13-HODE; format: binding, goat; conditions: plate coated with the IgG, various concentrations
Protocol: FIG. 6 is a graph showing a competitive ELISA carried out with various concentrations of BSA and 13-HODE ethyl ester conjugated BSA to show cross-reactivity of the antibody to the 13-HODE ethyl ester.
A competitive ELISA using a plate coated with the IgG was carried out with various concentrations of BSA conjugated with ethanol-esterified 13-HODE and HRP conjugated with ethanol-esterilied 13-HODE. A negative control for this ELISA was BSA.
ELISA was carried out with serially diluted BSA or ethyl ester of 13-HODE-conjugated BSA and ˜50 ng/100 μl of the ethyl ester of 13-HODE HRP conjugates as described in Example 1.

CCCCC[C@H](O)/C=C/C=C\C/C=C\C=C\[C@@H](O)CCCC(=O)O [5(s)15(S)DiHETE]
cross-reaction with anti-14,15-DHET [1]: did not cross-react

CCCCC/C=C\C/C=C\C/C=C\CC(O)C(O)CCCC(=O)O (stereo not shown) [5,6-DHET]
cross-reaction with anti-14,15-DHET [1]: did not cross-react
cross-reaction with 11,12-DHET IgG (11,12-DHET IgG): didn't cross-react
form-specific antibody production [2]: failed

CCCCC/C=C\C/C=C\C/C=C\CC1OC1CCCC(=O)O (stereo not shown) [5,6-EET]
cross-reaction with anti-14,15-DHET [1]: did not cross-react

CCCCC[C@H](O)/C=C/[C@@H]1[C@@H](CC(=O)CCCCC(=O)O)[C@@H](O)C[C@H]1O [6-keto-PGF1a]
cross-reaction with anti-14,15-DHET [1]: did not cross-react

CCCCC/C=C\C/C=C\CC(O)C(O)C/C=C\CCCC(=O)O (stereo not shown) [8,9-DHET]
cross-reaction with anti-14,15-DHET [1]: minimal cross-reaction
cross-reaction with 11,12-DHET IgG (11,12-DHET IgG): minimal cross-reaction
cross-reaction with anti-8,9-DHET (Anti-8,9-DHET): cross-reacted
form-specific antibody production [2]: failed

CCCCC/C=C\C/C=C\CC1OC1C/C=C\CCCC(=O)O (stereo not shown) [8,9-EET]
cross-reaction with anti-14,15-DHET [1]: did not cross-react

CCCCC/C=C\CC(O)C(O)C/C=C\C/C=C\CCCC(=O)O (stereo not shown) [11,12-DHET]
cross-reaction with anti-14,15-DHET [1]: minimal cross-reaction
form-specific antibody production [2]: successful

CCCCC/C=C\C[C@H]1O[C@H]1C/C=C\C/C=C\CCCC(=O)O [11,12-EET]
cross-reaction with anti-14,15-DHET [1]: did not cross-react

CCCCCC(O)C(O)C/C=C\C/C=C\C/C=C\CCCC(=O)O (stereo not shown) [14,15-DHET]
cross-reaction with 11,12-DHET IgG (11,12-DHET IgG): minimal cross-reaction
cross-reaction with anti-8,9-DHET (Anti-8,9-DHET): cross-reacted
form-specific antibody production [2]: successful

CCCCCC1OC1C/C=C\C/C=C\C/C=C\CCCC(=O)O (stereo not shown) [14,15-EET]
cross-reaction with anti-14,15-DHET [1]: did not cross-react

CCCCC[C@H](O)/C=C/C=C\C/C=C\C/C=C\CCCC(=O)O [15(S)HETE]
cross-reaction with anti-14,15-DHET [1]: did not cross-react

CCCCC/C=C\C/C=C\CCCCCCCC(=O)OCC [Ethanol-esterified linoleic acid, linoleic acid ethyl ester]
competition with ethanol-esterified 13-HODE-HRP conjugate for binding to the IgG [3]: competed with the HRP conjugated with ethanol-esterified 13-HODE in a dose-dependent manner

CCCCC[C@H](O)/C=C/[C@H]1[C@H](O)CC(=O)[C@@H]1C/C=C\CCCC(=O)O [PGE2]
cross-reaction with anti-14,15-DHET [1]: did not cross-react

CCCCC[C@H](O)/C=C/[C@@H]1[C@@H](C/C=C\CCCC(=O)O)[C@@H](O)C[C@H]1O [PGF2a]
cross-reaction with anti-14,15-DHET [1]: did not cross-react

CCCCC[C@H](O)/C=C/[C@H]1OC(O)C[C@H](O)[C@@H]1C/C=C\CCCC(=O)O (stereo partly shown) [Thromboxane B2]
cross-reaction with anti-14,15-DHET [1]: did not cross-react

CCCCC/C=C\C/C=C\C/C=C\C/C=C\CCCC(=O)O [arachidonic acid]
cross-reaction with anti-14,15-DHET [1]: did not cross-react

CCO [ethanol]
competition with ethanol-esterified 13-HODE-HRP conjugate for binding to the IgG [3]: competed with the HRP conjugated with ethanol-esterified 13-HODE in a dose-dependent manner
